# From US20160235752A1, “COMPOSITIONS, METHODS OF USE, AND METHODS OF TREATMENT” (THE UNIVERSITY OF NEW ORLEANS, priority 2013, published 2016)
# Experiments:
# [1] = system: Candida albicans (ATCC no. 10231); assay: MIC determination by broth microdilution (NCCLS), visual scoring; format: cell-based; conditions: for MIC80: Candida albicans, ATCC10231, read-out: MIC80 C. albicans
# In short: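 NCCLS broth microdilution in RPMI 1640 with 10 mM HEPES, final compound 0.5–128 μg/mL, DMSO ≤1%. Inoculum from 0.5 McFarland stock diluted 1:50; incubated 35 °C for 48–72 h. MIC scored visually as lowest concentration giving ~80% growth reduction versus drug-free wells.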
# [2] = system: Candida glabrata (ATCC no. 48435); assay: as above; format: cell-based; conditions: for MIC80: Nakaseomyces glabratus, ATCC48435, read-out: MIC80 C. glabrata
# [3] = Table 1, 5-Acyl-2,4,6-pyrimidinetriones, >80% growth inhibition, RPMI, 1% DMSO
# [4] = Table 3, 5-Alkylated Pyrimidinetriones
# [5] = Table 2, 5-Arylidene-2,4,6-pyrimidinetriones
# [6] = Table 8, N-Acylhydrazones of 5-Acylpyrimidinetriones
# [7] = Table 5, Schiff Bases of 5-acylpyrimidinetriones
structure (smiles),measurement,setting,value
CC(=O)C1C(=O)NC(=O)N(c2ccccc2)C1=O (stereo not drawn) [BA21],MIC80 C. albicans,[1]; [3],"— (none of the 5-acyl-2,4,6-pyrimidinetriones, 5-alkylated pyrimidinetriones or the 5,5-dialkylated pyrimidinetriones showed antifungal activity through 125 μg/mL)"
same,MIC80 C. glabrata,[2]; [3],"— (none of the 5-acyl-2,4,6-pyrimidinetriones, 5-alkylated pyrimidinetriones or the 5,5-dialkylated pyrimidinetriones showed antifungal activity through 125 μg/mL)"
CCCCCCCC1C(=O)NC(=O)NC1=O [BA60],MIC80 C. albicans,[1]; [4],"— (none of the 5-acyl-2,4,6-pyrimidinetriones, 5-alkylated pyrimidinetriones or the 5,5-dialkylated pyrimidinetriones showed antifungal activity through 125 μg/mL)"
same,MIC80 C. glabrata,[2]; [4],"— (none of the 5-acyl-2,4,6-pyrimidinetriones, 5-alkylated pyrimidinetriones or the 5,5-dialkylated pyrimidinetriones showed antifungal activity through 125 μg/mL)"
O=C1NC(=O)C(=Cc2ccc3ccccc3c2)C(=O)N1 [BA40],MIC80 C. albicans,[1]; [5],125 µg/mL
same,MIC80 C. glabrata,[2]; [5],"— (none of the 5-acyl-2,4,6-pyrimidinetriones, 5-alkylated pyrimidinetriones or the 5,5-dialkylated pyrimidinetriones showed antifungal activity through 125 μg/mL)"
O=C1NC(=O)C(CCCC2CCCCC2)C(=O)N1 [BA63],MIC80 C. albicans,[1]; [4],"— (none of the 5-acyl-2,4,6-pyrimidinetriones, 5-alkylated pyrimidinetriones or the 5,5-dialkylated pyrimidinetriones showed antifungal activity through 125 μg/mL)"
same,MIC80 C. glabrata,[2]; [4],"— (none of the 5-acyl-2,4,6-pyrimidinetriones, 5-alkylated pyrimidinetriones or the 5,5-dialkylated pyrimidinetriones showed antifungal activity through 125 μg/mL)"
O=C1NC(=O)N(c2ccccc2)C(=O)C1CC1CCC(O)CC1 (stereo not drawn) [BA65],MIC80 C. albicans,[1]; [4],"— (none of the 5-acyl-2,4,6-pyrimidinetriones, 5-alkylated pyrimidinetriones or the 5,5-dialkylated pyrimidinetriones showed antifungal activity through 125 μg/mL)"
same,MIC80 C. glabrata,[2]; [4],"— (none of the 5-acyl-2,4,6-pyrimidinetriones, 5-alkylated pyrimidinetriones or the 5,5-dialkylated pyrimidinetriones showed antifungal activity through 125 μg/mL)"
COC(=O)NN=C(c1ccc([N+](=O)[O-])cc1)C1C(=O)NC(=O)NC1=O [BA37],MIC80 C. albicans,[1]; [6],"— (none of the 5-acyl-2,4,6-pyrimidinetriones, 5-alkylated pyrimidinetriones or the 5,5-dialkylated pyrimidinetriones showed antifungal activity through 125 μg/mL)"
same,MIC80 C. glabrata,[2]; [6],"— (none of the 5-acyl-2,4,6-pyrimidinetriones, 5-alkylated pyrimidinetriones or the 5,5-dialkylated pyrimidinetriones showed antifungal activity through 125 μg/mL)"
O=C1NC(=O)C(=Cc2ccoc2)C(=O)N1 [BA55],MIC80 C. albicans,[1]; [5],"— (none of the 5-acyl-2,4,6-pyrimidinetriones, 5-alkylated pyrimidinetriones or the 5,5-dialkylated pyrimidinetriones showed antifungal activity through 125 μg/mL)"
same,MIC80 C. glabrata,[2]; [5],"— (none of the 5-acyl-2,4,6-pyrimidinetriones, 5-alkylated pyrimidinetriones or the 5,5-dialkylated pyrimidinetriones showed antifungal activity through 125 μg/mL)"
"CN1C(=O)C(/C=N/Nc2ccccc2)C(=O)N(C)C1=O [BA73, 1,3-dimethyl-5-[(E)-(2-phenylhydrazinylidene)methyl]pyrimidine-2,4,6-trione]",MIC80,[1],4 µg/mL
same,MIC80,[2],2 µg/mL
O=C1NC(=O)C(=Cc2ccccc2)C(=O)N1 [BA39],MIC80 C. albicans,[1]; [5],"— (none of the 5-acyl-2,4,6-pyrimidinetriones, 5-alkylated pyrimidinetriones or the 5,5-dialkylated pyrimidinetriones showed antifungal activity through 125 μg/mL)"
same,MIC80 C. glabrata,[2]; [5],"— (none of the 5-acyl-2,4,6-pyrimidinetriones, 5-alkylated pyrimidinetriones or the 5,5-dialkylated pyrimidinetriones showed antifungal activity through 125 μg/mL)"
"C/C(=N\Nc1ccc([N+](=O)[O-])cc1[N+](=O)[O-])C1C(=O)NC(=O)NC1=O [BA26, 5-{(1E)-1-[2-(2,4-Dinitrophenyl)hydrazinylidene]ethyl}pyrimidine-2,4,6-trione]",MIC80,[1],> 125 µg/mL
same,MIC80,[2],> 125 µg/mL
COC(=O)NN=CC1C(=O)NC(=O)NC1=O [BA77],MIC80 C. albicans,[1]; [6],"— (none of the 5-acyl-2,4,6-pyrimidinetriones, 5-alkylated pyrimidinetriones or the 5,5-dialkylated pyrimidinetriones showed antifungal activity through 125 μg/mL)"
same,MIC80 C. glabrata,[2]; [6],"— (none of the 5-acyl-2,4,6-pyrimidinetriones, 5-alkylated pyrimidinetriones or the 5,5-dialkylated pyrimidinetriones showed antifungal activity through 125 μg/mL)"
COc1ccc(C(=O)C2C(=O)NC(=O)NC2=O)cc1 [BA14],MIC80 C. albicans,[1]; [3],"— (none of the 5-acyl-2,4,6-pyrimidinetriones, 5-alkylated pyrimidinetriones or the 5,5-dialkylated pyrimidinetriones showed antifungal activity through 125 μg/mL)"
same,MIC80 C. glabrata,[2]; [3],"— (none of the 5-acyl-2,4,6-pyrimidinetriones, 5-alkylated pyrimidinetriones or the 5,5-dialkylated pyrimidinetriones showed antifungal activity through 125 μg/mL)"
O=C1NC(=O)C(C=Nc2ccccc2)C(=O)N1 [BA89],MIC80 C. albicans,[1]; [7],"— (none of the 5-acyl-2,4,6-pyrimidinetriones, 5-alkylated pyrimidinetriones or the 5,5-dialkylated pyrimidinetriones showed antifungal activity through 125 μg/mL)"
same,MIC80 C. glabrata,[2]; [7],"— (none of the 5-acyl-2,4,6-pyrimidinetriones, 5-alkylated pyrimidinetriones or the 5,5-dialkylated pyrimidinetriones showed antifungal activity through 125 μg/mL)"
COc1ccc(C=C2C(=O)N(C)C(=O)N(C)C2=O)c(OC)c1OC [BA51],MIC80 C. albicans,[1]; [5],"— (none of the 5-acyl-2,4,6-pyrimidinetriones, 5-alkylated pyrimidinetriones or the 5,5-dialkylated pyrimidinetriones showed antifungal activity through 125 μg/mL)"
same,MIC80 C. glabrata,[2]; [5],"— (none of the 5-acyl-2,4,6-pyrimidinetriones, 5-alkylated pyrimidinetriones or the 5,5-dialkylated pyrimidinetriones showed antifungal activity through 125 μg/mL)"
COC(=O)NN=C(C)C1C(=O)N(C)C(=O)N(C)C1=O [BA75],MIC80 C. albicans,[1]; [6],"— (none of the 5-acyl-2,4,6-pyrimidinetriones, 5-alkylated pyrimidinetriones or the 5,5-dialkylated pyrimidinetriones showed antifungal activity through 125 μg/mL)"
same,MIC80 C. glabrata,[2]; [6],"— (none of the 5-acyl-2,4,6-pyrimidinetriones, 5-alkylated pyrimidinetriones or the 5,5-dialkylated pyrimidinetriones showed antifungal activity through 125 μg/mL)"
CN1C(=O)C(=CC=Cc2ccccc2)C(=O)N(C)C1=O [BA43],MIC80 C. albicans,[1]; [5],62 µg/mL
same,MIC80 C. glabrata,[2]; [5],125 µg/mL
"CN1C(=O)C(C(=O)c2ccccc2)C(=O)N(C)C1=O [BA3, 5-benzoyl-1,3-dimethylpyrimidine-2,4,6-trione]",MIC80,[1],> 125 µg/mL
same,MIC80,[2],> 125 µg/mL
CC(=Nc1ccncc1)C1C(=O)N(C)C(=O)N(C)C1=O [BA84],MIC80 C. albicans,[1]; [7],"— (none of the 5-acyl-2,4,6-pyrimidinetriones, 5-alkylated pyrimidinetriones or the 5,5-dialkylated pyrimidinetriones showed antifungal activity through 125 μg/mL)"
same,MIC80 C. glabrata,[2]; [7],"— (none of the 5-acyl-2,4,6-pyrimidinetriones, 5-alkylated pyrimidinetriones or the 5,5-dialkylated pyrimidinetriones showed antifungal activity through 125 μg/mL)"
O=C1NC(=O)C(C=Nc2ccc(O)cc2)C(=O)N1 [BA81],MIC80 C. albicans,[1]; [7],"— (none of the 5-acyl-2,4,6-pyrimidinetriones, 5-alkylated pyrimidinetriones or the 5,5-dialkylated pyrimidinetriones showed antifungal activity through 125 μg/mL)"
same,MIC80 C. glabrata,[2]; [7],"— (none of the 5-acyl-2,4,6-pyrimidinetriones, 5-alkylated pyrimidinetriones or the 5,5-dialkylated pyrimidinetriones showed antifungal activity through 125 μg/mL)"
COC(=O)NN=C(C)C1C(=O)NC(=O)NC1=O [BA86],MIC80 C. albicans,[1]; [6],"— (none of the 5-acyl-2,4,6-pyrimidinetriones, 5-alkylated pyrimidinetriones or the 5,5-dialkylated pyrimidinetriones showed antifungal activity through 125 μg/mL)"
same,MIC80 C. glabrata,[2]; [6],"— (none of the 5-acyl-2,4,6-pyrimidinetriones, 5-alkylated pyrimidinetriones or the 5,5-dialkylated pyrimidinetriones showed antifungal activity through 125 μg/mL)"
CC(=Nc1ccccc1)C1C(=O)NC(=O)NC1=O [BA92],MIC80 C. albicans,[1]; [7],"— (none of the 5-acyl-2,4,6-pyrimidinetriones, 5-alkylated pyrimidinetriones or the 5,5-dialkylated pyrimidinetriones showed antifungal activity through 125 μg/mL)"
same,MIC80 C. glabrata,[2]; [7],"— (none of the 5-acyl-2,4,6-pyrimidinetriones, 5-alkylated pyrimidinetriones or the 5,5-dialkylated pyrimidinetriones showed antifungal activity through 125 μg/mL)"
CN1C(=O)NC(=O)C(C(=O)c2ccccc2)C1=O (stereo not drawn) [BA2],MIC80 C. albicans,[1]; [3],"— (none of the 5-acyl-2,4,6-pyrimidinetriones, 5-alkylated pyrimidinetriones or the 5,5-dialkylated pyrimidinetriones showed antifungal activity through 125 μg/mL)"
same,MIC80 C. glabrata,[2]; [3],"— (none of the 5-acyl-2,4,6-pyrimidinetriones, 5-alkylated pyrimidinetriones or the 5,5-dialkylated pyrimidinetriones showed antifungal activity through 125 μg/mL)"
CN1C(=O)C(C=Nc2ccncc2)C(=O)N(C)C1=O [BA82],MIC80 C. albicans,[1]; [7],"— (none of the 5-acyl-2,4,6-pyrimidinetriones, 5-alkylated pyrimidinetriones or the 5,5-dialkylated pyrimidinetriones showed antifungal activity through 125 μg/mL)"
same,MIC80 C. glabrata,[2]; [7],"— (none of the 5-acyl-2,4,6-pyrimidinetriones, 5-alkylated pyrimidinetriones or the 5,5-dialkylated pyrimidinetriones showed antifungal activity through 125 μg/mL)"
O=C1NC(=O)C(=Cc2ccc(O)cc2)C(=O)N1 [BA44],MIC80 C. albicans,[1]; [5],"— (none of the 5-acyl-2,4,6-pyrimidinetriones, 5-alkylated pyrimidinetriones or the 5,5-dialkylated pyrimidinetriones showed antifungal activity through 125 μg/mL)"
same,MIC80 C. glabrata,[2]; [5],"— (none of the 5-acyl-2,4,6-pyrimidinetriones, 5-alkylated pyrimidinetriones or the 5,5-dialkylated pyrimidinetriones showed antifungal activity through 125 μg/mL)"
